Here are results for eight compounds from PubChem BioAssay (NCI).

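The compound was tested at five concentrations on cells cultured in 96-well plates, with a 48-hour exposure period. At the GI50, growth is halved. TGI: total growth inhibition.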 Where only a bound is given, the exact number is not on record here.

Some test systems named below: ACHN renal; HCT-116 colon; HL-60(TB) leukemia; HOP-92 NSCLC; HT29 colon; K-562 leukemia; RPMI-8226 leukemia; SK-MEL-2 melanoma; SW-620 colon; U251 CNS.
Common to all, as to assay: NCI tumour cell line growth inhibition, 48 h

Consider `COc1cc(NS(C)(=O)=O)ccc1Nc1c2ccc(Cl)cc2nc2c(OC)cccc12`, for which the GI50 in the assay with ACHN renal is 0.0314 µM; in the assay on HCT-116 colon, 0.0794 µM; in the assay with HL-60(TB) leukemia, 0.0313 µM; in the assay with HOP-92 NSCLC, 0.0765 µM; in the assay with HT29 colon, 0.142 µM; in the assay on K-562 leukemia, 0.425 µM. Further, the GI50 in the assay with RPMI-8226 leukemia was 0.595 µM; in the assay on SK-MEL-2 melanoma, 1.47 µM; in the assay on SW-620 colon it was 0.0799 µM; in the assay on U251 CNS it was 0.0982 µM. For the same compound, the TGI was 1.5 µM in the assay on ACHN renal; 2.05 µM in the assay with HCT-116 colon; 1.3 µM in the assay on HL-60(TB) leukemia; 2.48 µM in the assay on HOP-92 NSCLC; 1.85 µM with HT29 colon; greater than 100 µM in the assay with K-562 leukemia. The TGI with SK-MEL-2 melanoma was determined as 7.35 µM; in the assay on SW-620 colon it was 2.17 µM; in the assay with U251 CNS, 1.32 µM.

For `CCOC(=O)/C(O)=C(/c1n[nH]c(=O)c2ccccc12)[N+](=O)[O-]`, the TGI with ACHN renal, in the assay with HCT-116 colon, with HL-60(TB) leukemia, in the assay with HOP-92 NSCLC, in the assay on HT29 colon and in the assay with K-562 leukemia was greater than 100 µM throughout. For the same compound, the TGI in the assay on RPMI-8226 leukemia, with SK-MEL-2 melanoma, in the assay with SW-620 colon and with U251 CNS was greater than 100 µM each time.

In the case of `COc1cc(C(=O)c2ccc3c(c2)OCO3)cc(OC)c1OC`, the GI50 in the assay on ACHN renal was 8.37 µM; in the assay with HCT-116 colon, 2.08 µM; in the assay on HL-60(TB) leukemia, 0.609 µM; with HOP-92 NSCLC it was 2.48 µM; in the assay on HT29 colon, 0.502 µM; in the assay on K-562 leukemia, 0.482 µM. In addition, the GI50 with RPMI-8226 leukemia was 2.64 µM; in the assay with SK-MEL-2 melanoma, 2.53 µM; in the assay with SW-620 colon, 0.621 µM; with U251 CNS, 2.81 µM. The TGI in the assay with ACHN renal is greater than 100 µM; in the assay on HCT-116 colon it was greater than 100 µM; with HL-60(TB) leukemia, 9.02 µM; in the assay with HOP-92 NSCLC, greater than 100 µM; in the assay with HT29 colon, 15.5 µM; in the assay with K-562 leukemia it was greater than 100 µM. Also, the TGI was greater than 42 µM in the assay with RPMI-8226 leukemia, greater than 100 µM in the assay with SK-MEL-2 melanoma, greater than 100 µM with SW-620 colon and greater than 100 µM in the assay with U251 CNS.

On to `Cc1cc2c(cc1Cl)SC1=CC(=O)N(c3ccccc3)C1=NS2(=O)=O`, for which the GI50 is 26.6 µM in the assay with ACHN renal; 30.9 µM with HCT-116 colon; 23.8 µM with HL-60(TB) leukemia; 34.3 µM with HOP-92 NSCLC; 21.5 µM with HT29 colon; 14.4 µM in the assay on RPMI-8226 leukemia. In addition, the GI50 is 51.4 µM with SK-MEL-2 melanoma, 33.1 µM in the assay with SW-620 colon and 57.5 µM with U251 CNS. For the same compound, the TGI in the assay on ACHN renal is greater than 100 µM; in the assay with HCT-116 colon it was greater than 100 µM; in the assay with HL-60(TB) leukemia, 63.8 µM; in the assay with HOP-92 NSCLC, greater than 100 µM; in the assay with HT29 colon, 67.8 µM; in the assay on RPMI-8226 leukemia, 36.5 µM. In addition, the TGI with SK-MEL-2 melanoma, with SW-620 colon and in the assay on U251 CNS was greater than 100 µM in each case.

Turning to `C/C=C(\C)C(=O)N[C@H]1CC[C@]2(C)C3CC[C@@]4(C)C(CC[C@@H]4C(C)N(C)C)C3CCC2[C@H]1OC(C)=O` (some centres not stated), the GI50 with ACHN renal was 1.98 µM; with HCT-116 colon, 1.04 µM; with HL-60(TB) leukemia, 1.88 µM; with HOP-92 NSCLC it was 1.24 µM; in the assay with HT29 colon, 0.362 µM; with K-562 leukemia it was 0.524 µM. Besides, the GI50 in the assay on RPMI-8226 leukemia was 1.62 µM; in the assay with SK-MEL-2 melanoma, 2.29 µM; with SW-620 colon, 1.53 µM; in the assay on U251 CNS, 1.55 µM. The TGI with ACHN renal was 4.2 µM; in the assay with HCT-116 colon it was 2.42 µM; with HL-60(TB) leukemia, 4.52 µM; in the assay on HOP-92 NSCLC it was 3.47 µM; in the assay on HT29 colon, 1.34 µM; in the assay on K-562 leukemia it was 2.17 µM. Also, the TGI is 4.68 µM in the assay with RPMI-8226 leukemia, 4.48 µM in the assay with SK-MEL-2 melanoma, 3.05 µM with SW-620 colon and 3.56 µM in the assay on U251 CNS.

Consider `O=S(=O)(O)O.[NH-]C1CCCCC1[NH-].[Pt+2]` (configuration not stated), for which the GI50 with ACHN renal is 47.8 µM; in the assay on HCT-116 colon, 43.4 µM; in the assay on HL-60(TB) leukemia, 19.3 µM; with HOP-92 NSCLC it was 56.7 µM; in the assay on HT29 colon, 63.1 µM; with K-562 leukemia, 37 µM. For the same compound, the GI50 is 48.6 µM in the assay on RPMI-8226 leukemia, greater than 100 µM with SK-MEL-2 melanoma, 5.33 µM in the assay on SW-620 colon and greater than 100 µM in the assay on U251 CNS. Further, the TGI in the assay on ACHN renal, with HCT-116 colon, in the assay with HL-60(TB) leukemia, with HOP-92 NSCLC, with HT29 colon and with K-562 leukemia was greater than 100 µM each time. For the same compound, the TGI in the assay with RPMI-8226 leukemia, in the assay with SK-MEL-2 melanoma, in the assay with SW-620 colon and in the assay on U251 CNS was greater than 100 µM each time.

With `Cc1[nH]c2ccccc2c1C1Cc2ccccc2N1C(=O)/C=C/C=C/c1ccccc1` (configuration not stated), the TGI in the assay on ACHN renal, with HCT-116 colon, in the assay on HL-60(TB) leukemia, with HOP-92 NSCLC, in the assay with HT29 colon and in the assay with K-562 leukemia was greater than 100 µM throughout. Also, the TGI in the assay with RPMI-8226 leukemia, in the assay on SK-MEL-2 melanoma, in the assay on SW-620 colon and in the assay on U251 CNS was greater than 100 µM throughout.

Regarding `C1=Cc2ccccc2Nc2ccccc21`, the GI50 in the assay on ACHN renal was greater than 100 µM; in the assay with HCT-116 colon, greater than 100 µM; with HL-60(TB) leukemia, greater than 100 µM; in the assay on HOP-92 NSCLC, 86.1 µM; in the assay with HT29 colon it was greater than 100 µM; in the assay with K-562 leukemia, greater than 100 µM. For the same compound, the GI50 with RPMI-8226 leukemia, in the assay on SK-MEL-2 melanoma, in the assay with SW-620 colon and in the assay with U251 CNS was greater than 100 µM each time. Further, the TGI in the assay on ACHN renal, in the assay on HCT-116 colon, in the assay with HL-60(TB) leukemia, in the assay on HOP-92 NSCLC, with HT29 colon and in the assay with K-562 leukemia was greater than 100 µM in each case. Besides, the TGI in the assay with RPMI-8226 leukemia, with SK-MEL-2 melanoma, in the assay on SW-620 colon and in the assay with U251 CNS was greater than 100 µM throughout.
